Test results taken from patent US20230277459A1, “PHARMACEUTICAL COMPOSITIONS HAVING HIGH DRUG LOADINGS OF MEDIUM CHAIN TRIGLYCERIDES AND METHODS RELATED THERETO” (CERECIN INC., priority 2017, published 2023).

Test: In-vitro digestion pH titration
Type: in vitro ADME
Conditions: FIG. 9
Text: The digestion pH titration curves for both compositions, as well as control samples F-11 and the Miglyol 808 oil are shown in FIG. 9.

## CCCCCCCC(=O)OCC(COC(=O)CCCCCCC)OC(=O)CCCCCCC [Miglyol 808 oil, caprylic triglyceride]
  digestion pH titration curve: sigmoidal titration curve, and is slower to reach the endpoint
